Measured values reported in article PMC10299909, “Structural basis of efficacy-driven ligand selectivity at GPCRs” (Nature Chemical Biology, 2023).
Numbering of substitutions follows the chain as printed.

Legend:
[1] = target: T1, M3 mAChR (Homo sapiens, UniProt P20309); experiment: whole-cell [3H]NMS radioligand competition binding, CHO FlpIn cells; details: first set of experiments, read-out: pKI (radioligand binding competition with [3H]NMS) (converted)
T1 construct: expressed in transfected cells; host or cells: CHO FlpIn
T1 sequence (P20309 whole entry): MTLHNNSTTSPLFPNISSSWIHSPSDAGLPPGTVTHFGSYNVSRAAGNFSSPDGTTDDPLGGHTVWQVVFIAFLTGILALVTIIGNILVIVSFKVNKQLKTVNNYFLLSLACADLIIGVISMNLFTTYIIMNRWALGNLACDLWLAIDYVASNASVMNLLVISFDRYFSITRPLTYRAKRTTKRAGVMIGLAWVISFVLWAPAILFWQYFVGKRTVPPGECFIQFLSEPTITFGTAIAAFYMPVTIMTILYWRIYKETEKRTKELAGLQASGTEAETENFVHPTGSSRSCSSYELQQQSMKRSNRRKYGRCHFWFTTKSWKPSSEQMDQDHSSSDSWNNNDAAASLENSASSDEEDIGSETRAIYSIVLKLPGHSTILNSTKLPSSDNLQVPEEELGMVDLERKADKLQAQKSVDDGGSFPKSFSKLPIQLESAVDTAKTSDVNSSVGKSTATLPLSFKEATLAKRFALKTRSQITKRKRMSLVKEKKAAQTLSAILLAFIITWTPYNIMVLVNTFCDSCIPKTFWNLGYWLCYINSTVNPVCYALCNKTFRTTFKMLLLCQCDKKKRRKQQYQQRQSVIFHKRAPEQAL

[2] = target: T2, M4 mAChR (Homo sapiens, UniProt P08173); experiment: as above; details: read-out: Affinities M2 M4: binding normalised to Buffer only-TB = 100
T2 construct: expressed in transfected cells; host or cells: CHO FlpIn
T2 sequence (P08173 1-479): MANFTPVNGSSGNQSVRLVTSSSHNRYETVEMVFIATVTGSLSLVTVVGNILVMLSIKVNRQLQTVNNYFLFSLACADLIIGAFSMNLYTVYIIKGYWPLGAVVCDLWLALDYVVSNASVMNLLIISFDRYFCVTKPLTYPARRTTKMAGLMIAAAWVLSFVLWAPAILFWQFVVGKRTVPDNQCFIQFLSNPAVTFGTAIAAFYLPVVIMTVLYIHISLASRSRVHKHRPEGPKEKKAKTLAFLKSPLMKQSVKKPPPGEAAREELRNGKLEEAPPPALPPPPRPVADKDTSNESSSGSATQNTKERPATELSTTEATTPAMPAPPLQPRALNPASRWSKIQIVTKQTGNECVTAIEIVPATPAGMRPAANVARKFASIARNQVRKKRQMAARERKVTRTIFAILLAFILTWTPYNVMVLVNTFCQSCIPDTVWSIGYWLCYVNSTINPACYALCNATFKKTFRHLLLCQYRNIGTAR

[3] = target: T1, M3 mAChR; experiment: pERK1/pERK2 signaling assay (AlphaScreen SureFire), CHO FlpIn cells; assay type: cell-based
[4] = target: T2, M4 mAChR; experiment: as above; assay type: cell-based
[5] = target: T3, M5 mAChR (Homo sapiens, UniProt P08912); experiment: as above; assay type: cell-based; details: first set of experiments
T3 construct: expressed in transfected cells; host or cells: CHO FlpIn
T3 sequence (P08912 1-532): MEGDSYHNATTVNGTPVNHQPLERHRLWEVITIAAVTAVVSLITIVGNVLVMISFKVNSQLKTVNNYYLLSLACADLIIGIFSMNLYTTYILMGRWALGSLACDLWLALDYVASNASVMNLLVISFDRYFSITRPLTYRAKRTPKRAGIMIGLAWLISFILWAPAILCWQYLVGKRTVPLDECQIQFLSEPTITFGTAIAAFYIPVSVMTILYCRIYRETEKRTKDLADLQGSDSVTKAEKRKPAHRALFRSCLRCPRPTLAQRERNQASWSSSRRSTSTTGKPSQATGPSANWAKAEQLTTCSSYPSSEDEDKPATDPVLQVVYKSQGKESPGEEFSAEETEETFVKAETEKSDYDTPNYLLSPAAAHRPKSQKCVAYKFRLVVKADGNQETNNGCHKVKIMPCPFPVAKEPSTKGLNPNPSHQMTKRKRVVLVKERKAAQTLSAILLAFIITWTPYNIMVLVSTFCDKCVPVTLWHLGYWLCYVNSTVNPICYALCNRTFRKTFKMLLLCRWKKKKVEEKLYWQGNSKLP

[6] = target: T4, M4 L190F mAChR (Homo sapiens, UniProt P08173, L190F); experiment: as above; assay type: cell-based; details: M4(L190F); second set of experiments
T4 construct: expressed in transfected cells; host or cells: CHO FlpIn
T4 sequence (P08173 1-479 L190F): T2 sequence (P08173 1-479) with L190F

[7] = target: T5, M2 WT mAChR (Homo sapiens, UniProt P08172); experiment: BRET TRUPATH GoA activation (G-protein dissociation) assay; assay type: cell-based; details: M2 WT; T=[…]
T5 construct: expressed in transfected cells; host or cells: CHO FlpIn
T5 sequence (P08172 1-466): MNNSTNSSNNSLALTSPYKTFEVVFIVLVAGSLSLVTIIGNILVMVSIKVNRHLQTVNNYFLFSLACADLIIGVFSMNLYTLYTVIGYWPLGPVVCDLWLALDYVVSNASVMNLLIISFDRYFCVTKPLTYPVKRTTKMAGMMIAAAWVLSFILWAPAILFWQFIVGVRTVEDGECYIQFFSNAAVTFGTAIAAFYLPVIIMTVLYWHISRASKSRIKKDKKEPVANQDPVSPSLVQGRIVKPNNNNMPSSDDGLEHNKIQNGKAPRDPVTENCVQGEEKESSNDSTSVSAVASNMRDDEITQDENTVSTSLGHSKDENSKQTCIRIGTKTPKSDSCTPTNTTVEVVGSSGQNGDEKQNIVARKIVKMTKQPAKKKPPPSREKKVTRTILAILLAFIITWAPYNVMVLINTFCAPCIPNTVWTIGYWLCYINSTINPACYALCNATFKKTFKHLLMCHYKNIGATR
Description: (§1) Cells were seeded at 20,000 cells per well into 96-well flat-bottom white culture plates and grown for 4 h. Plasmid DNA (20 ng per well of Gα, Gβ and Gγ at a 1:1:1 ratio) and linear polyethylenimine were added to the cells in a 1:6 ratio. To allow for protein expression, cells were then incubated (37 °C, 5% CO2) for 48 h before the measurement of agonist activity. […] The initial 4 min of measurement was considered baseline counts before ligand or vehicle addition, with BRET readings every 2 min for a further 8 min following drug or vehicle addition.
(§2) Concentration–response curves were fitted to a three-parameter logistic equation to derive ligand potency (pEC50) estimates.
(§3) Data was analyzed using the operational model of agonism to quantify the efficacy (Logτ) of each agonist in each cell line, and subsequently corrected for receptor expression level differences between cell lines (Logτc), using the M2 WT as reference. […] Source data

[8] = target: T4, M4 L190F mAChR; experiment: as above; assay type: cell-based; details: T=[…]
Description: as §1, §2, §3

[9] = target: T6, M4 WT mAChR (Homo sapiens, UniProt P08173); experiment: as above; assay type: cell-based; details: T=[…]
T6 construct: expressed in transfected cells; host or cells: CHO FlpIn
T6 sequence (P08173 1-479): T2 sequence (P08173 1-479)

[10] = target: T7, M2 mAChR (Homo sapiens, UniProt P08172); experiment: whole-cell [3H]NMS radioligand competition binding, CHO FlpIn cells
T7 sequence (P08172 1-466): T5 sequence (P08172 1-466)

Compound `CCCCCCOc1nsnc1C1=CCCN(C)C1` [Xanomeline, xanomeline] has a Ki [1] of 100 nM, a remaining binding at 10 µM ([2]; M4, Log[Ligand] (M) -5, individual experiments) of 1.95% and a remaining binding at 1 µM ([2]; M4, Log[Ligand] (M) -6, individual experiments) of 18.6%. For the same compound, the remaining binding at 0.1 µM ([2]; M4, Log[Ligand] (M) -7, individual experiments) was 88%, the remaining binding at 0.001 µM ([2]; M4, Log[Ligand] (M) -9, individual experiments) was 105% and the “Emax pERK1/2” value [3] was 62 ± 6 % FBS stimulation. For the same compound, the EC50 ([3]; M3, first set of experiments, read-out: pEC50 pERK1/2 (converted)) was 117 nM, the “Emax pERK1/2” value ([4]; first set of experiments (top 5 rows)) was 92 ± 4 % FBS stimulation and the “Emax pERK1/2” value ([4]; second set of experiments (bottom 4 rows)) was 101 ± 3 % FBS stimulation. For the same compound, the “Emax pERK1/2” value [5] was 80 ± 8 % FBS stimulation, the “Emax pERK1/2” value [6] was 90 ± 8 % FBS stimulation and the “Log(Tau) corrected for receptor expression (Logτc), GoA activation” value (“Log(Tau) corrected” for short) [7] was -0.65. For the same compound, the “Log(Tau) corrected” value [8] was -0.36, the activation at 1000 µM ([8]; […], Log[Ligand] (M) -3, individual experiments, read-out: GoA activation response) was 3.92% and the activation at 10 µM ([8]; […], Log[Ligand] (M) -5, individual experiments, read-out: GoA activation response) was 49%. The “Log(Tau) corrected” value [9] was 0.38, the remaining binding at 0.1 µM ([10]; read-out: Affinities M2 M4: binding normalised to Buffer only-TB = 100, M2, Log[Ligand] (M) -7, individual experiments) was 83.3% and the remaining binding at 0.01 µM ([10]; read-out: Affinities M2 M4: binding normalised to Buffer only-TB = 100, M2, Log[Ligand] (M) -8, individual experiments) was 90.2%. It also gave a remaining binding at 0.0001 µM ([10]; read-out: Affinities M2 M4: binding normalised to Buffer only-TB = 100, M2, Log[Ligand] (M) -10, individual experiments) of 101%.
